Values quoted from earlier work in patent US20010001064A1, “Flow electroporation chamber and methods of use thereof” (priority 1998, published 2001).

Key:
hemoglobin [1] = target: T1, hemoglobin (Homo sapiens, UniProt P68871+P69905); details: relative to DPG
hemoglobin [2] = target: T1, hemoglobin; details: pH 7.4, 37 degrees C.

T1 sequence (P69905 2-142 limits assumed): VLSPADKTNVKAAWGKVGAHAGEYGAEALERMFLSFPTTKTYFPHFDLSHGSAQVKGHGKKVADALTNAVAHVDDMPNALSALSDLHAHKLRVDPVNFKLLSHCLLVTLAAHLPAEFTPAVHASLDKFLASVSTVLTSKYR
T1 sequence (P68871 2-147 limits assumed): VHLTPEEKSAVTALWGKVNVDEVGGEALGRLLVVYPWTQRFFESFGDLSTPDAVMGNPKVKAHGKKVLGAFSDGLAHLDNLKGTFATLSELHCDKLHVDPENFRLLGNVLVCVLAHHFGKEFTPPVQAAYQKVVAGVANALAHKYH

affinity to hemoglobin, higher than DPG (hemoglobin [1]): 1000 fold
P50 of hemoglobin (hemoglobin [2]): ≤ 96.4 mm Hg
SMILES: O=P(O)(O)O[C@H]1[C@H](OP(=O)(O)O)[C@@H](OP(=O)(O)O)[C@H](OP(=O)(O)O)[C@@H](OP(=O)(O)O)[C@H]1OP(=O)(O)O [IHP, inositol hexaphosphate]
